# Laboratory results reported in US20160221992A1, “DENDRITIC COMPOUNDS INCLUDING A CHELATING, FLUOROCHROME OR RECOGNITION AGENT, COMPOSITIONS INCLUDING SAME AND USES THEREOF” (UNIVERSITE DE STRASBOURG, priority 2013, published 2016).
# Assays:
# [1] = tested on: murine melanoma (B16FO line); assay: Quantitative study of tumoral fixation and biodistribution of the radiolabeled compound (ex-vivo gamma counting after IV injection); assay type: in vivo, C57B16 mice
# [2] = tested on: murine melanoma (B16FO line); assay: as above; assay type: in vivo, C57B16 mice; details: for Ratio (g)/Al TU/kidneys / Ratio (g)/Al Tu/Liver / Ratio (g)/Al Tu/Lungs / Ratio (g)/Al Tu/blood / Total Elimination (% del ‘Al’) / Tumor (g/Al %) / Total Elimination: Indium-111-radiolabeled, IV
# Method: C57B16 mice bearing xenografts of murine melanoma (B16FO line) obtained by subcutaneous injection of 300 000 cells suspended in 100 μl of RPMI culture medium are injected subcutaneously in the back. The experiment is performed when the tumors are palpable. i.e. about 10 days […]. All the experiments (tumoral graft, injection and imaging) are carried out under isoflurane/oxygen (2.5%/2.5%) gas anesthesia.
# Injection of 50 to 100 microliters of the radiolabeled solution, with a maximum activity of 20 MBQ, by direct intravenous injection (caudal vein). The activity of the empty syringe after injection+compress is also measured for calculating the actual activity injected (actual Ac injected=Ac normalized full syringe—normalized activity (empty syringe and compress). Normalization consists in calculating the theoretical activity at one and the same time chosen as reference (for example the time of injection). The measurements are performed on a regularly calibrated activity meter for medical use (Medisystem©).
# Scintigraphic imaging is carried out using a dedicated small animal micro-5 imager SPECT-CT (BIOSCAN™). A planar scintigraphic image is obtained immediately after injection to verify absence of intracaudal stasis. If there is stasis, the mouse will be sacrificed at late times (24 or 48 h). Static scintigraphic images may be recorded at 2 h, 4 h, 24 h and 48 h (Imager micro-SPECT-CT BIOSCAN©).
# This is done ex-vivo by gamma counting of the various samples, using a gamma well counter for medical use, regularly calibrated for the isotopes used (Tc-99m and In-111). The animals are euthanized according to the protocols allowed by the animal ethics committee at 2 h, 4 h, 24 h or 48 h. The main organs are removed (brain, spleen, kidneys, lungs, heart, alimentary canal, liver) as well as a fragment of skin, muscle, bone and a blood sample and the whole tumor. Each sample is weighed and its gamma activity is counted in a sample-changing well counter for dedicated medical use, calibrated for the radioelements used. The animal's carcass is also weighed after removing the tail; these samples are incinerated and their gamma activity is also measured. The gamma activity of the samples containing all the collected urine and the feces is also measured. The activity of each sample is normalized (relative to the time of injection), and the ratio of the activity of each sample is calculated relative to the total activity injected (=the sum of all of the activities measured except that of the tail), expressed in % per gram of tissue, for calculating the ratio of the activity present in the tumor relative to the main organs (liver, kidneys, lungs and blood). The percentage of the activity eliminated is calculated.
# The mean values of all of the data for all of the mice whose data are exploitable are calculated, as well as after eliminating the animals with urinary excretion that is too quick (>50% at 2 h or 75% at 4 h, as well as the mice with tumors >2 g, as the existence of necrosis may distort the calculation of the ratio of fixation in the tumor).
# The biodistribution data of the various dendrimer compounds coupled to the IFC01102 ligand (also called amine R) and to a chelating agent are compared with those of the ligand alone coupled to the DOTA chelating agent (compound AP045) and radiolabeled with the same radioelement. 8.5 Results with Compound APAG9-1 (Radiolabeled with Tc99m) The radiochemical purity is above 95%, according to the chromatographic profile obtained as described above (example 5). 12 animals were injected. The average activity injected is 3.5±2.4 MBq. 2 animals were euthanized at 2 h, 4 at 24 h and 48 h post-injection. Examples of planar image immediately post-injection and 2 hours post-injection are illustrated in FIG. 3.
# [3] = cited from earlier work
# [4] = 48 post-IV, animals with low urinary excretion or under hydric restriction
# [5] = 2 h post-iv, animals with low urinary excretion or under hydric restriction
# [6] = 4 h post-IV, animals with low urinary excretion or under hydric restriction
# [7] = 24 h post-IV, animals with low urinary excretion or under hydric restriction
compound,measurement,setting,value
"CCN(CC)CCNC(=O)c1cnc2cc(NC(=O)NCCOCCOCCNC(=O)CN3CCN(CC(=O)O)CCN(CC(=O)O)CCN(CC(=O)O)CC3)ccc2n1 [AP045, reference compound]",Total Elimination (% del ‘Al’),"[1]; 4 h post-IV, Indium-111-radiolabeled, IV",6.38E+01 % del ‘Al’
same,tumor/kidney ratio (in words),"[1]; Indium-111, activity in the kidneys still high",unfavorable
same,Ratio (g)/Al TU/kidneys,[2]; 48 post-IV,4.06E−01
same,Ratio (g)/Al Tu/Liver,[2]; 48 post-IV,7.14E−02
same,Ratio (g)/Al Tu/Lungs,[2]; 48 post-IV,2.97E+00
same,Ratio (g)/Al Tu/blood,[2]; 48 post-IV,9.95E+00
same,Total Elimination (% del ‘Al’),[2]; 48 post-IV,7.23E+01 % del ‘Al’
same,Tumor (g/Al %),[2]; 48 post-IV,1.19E+00 g/Al %
same,Ratio (g)/Al TU/kidneys,[2]; 4 h post-IV,2.45E−01
same,Ratio (g)/Al Tu/Liver,[2]; 4 h post-IV,4.97E−02
same,Ratio (g)/Al Tu/Lungs,[2]; 4 h post-IV,1.92E+00
same,Ratio (g)/Al Tu/blood,[2]; 4 h post-IV,1.12E+01
same,Tumor (g/Al %),[2]; 4 h post-IV,1.44E+00 g/Al %
same,tumor ratio relative to the liver,"[2]; 24 hours after IV injection, Indium-111",greater than 1
same,Ratio (g)/Al TU/kidneys,[2]; 24 h post-IV,2.93E−01
same,Ratio (g)/Al Tu/Liver,[2]; 24 h post-IV,1.31E+00
same,Ratio (g)/Al Tu/Lungs,[2]; 24 h post-IV,3.55E+00
same,Total Elimination (% del ‘Al’),[2]; 24 h post-IV,90.33 % del ‘Al’
same,Tumor (g/Al %),[2]; 24 h post-IV,1.77E+00 g/Al %
same,time at which the maximum tumoral uptake is observed,[2]; after IV injection of the radiolabeled compound,24 h
CCN(CC)CCNC(=O)c1cnc2cc(NC(=O)NCCOCCOCCNC(=O)CCOCCOCCOCCOCCNC(=O)CCN(CCNC(=O)CCN(CCC(=O)NCCN(CCC(=O)NCCOCCOCCOCCOCCC(=O)NCCOCCOCCNC(=O)Nc3ccc4nc(C(=O)NCCN(CC)CC)cnc4c3)CCC(=O)NCCOCCOCCOCCOCCC(=O)NCCOCCOCCNC(=O)Nc3ccc4nc(C(=O)NCCN(CC)CC)cnc4c3)Cc3cn(CCOCCOCCOCCOCCNC(=O)CN4CCN(CC(=O)O)CCN(CC(=O)O)CCN(CC(=O)O)CC4)nn3)CCC(=O)NCCOCCOCCOCCOCCC(=O)NCCOCCOCCNC(=O)Nc3ccc4nc(C(=O)NCCN(CC)CC)cnc4c3)ccc2n1 [AP070],tumoral uptake relative to the compound AP071,"[1]; notably at 4 hours, Indium-111",lower
same,Ratio (g)/Al TU/kidneys,[2]; [4],5.23E−01
same,Ratio (g)/Al Tu/Liver,[2]; [4],1.59E+00
same,Ratio (g)/Al Tu/Lungs,[2]; [4],6.28E+00
same,Ratio (g)/Al Tu/blood,[2]; [4],1.74E+01
same,Total Elimination,[2]; [4],8.4E+01
same,Tumor (g/Al %),[2]; [4],3.60E+00 g/Al %
same,Ratio (g)/Al TU/kidneys,[2]; [5],3.6E−01
same,Ratio (g)/Al Tu/Liver,[2]; [5],1.4E+00
same,Ratio (g)/Al Tu/Lungs,[2]; [5],2.1E+00
same,Ratio (g)/Al Tu/blood,[2]; [5],1.9E+00
same,Total Elimination,[2]; [5],4.8E+01
same,Tumor (g/Al %),[2]; [5],5.9E+00 g/Al %
same,tumoral uptake (in words),"[2]; 4 hours after IV injection, Indium-111",high
same,Ratio (g)/Al TU/kidneys,[2]; [6],3.96E−01
same,Ratio (g)/Al Tu/Liver,[2]; [6],1.28E+00
same,Ratio (g)/Al Tu/Lungs,[2]; [6],2.93E+00
same,Ratio (g)/Al Tu/blood,[2]; [6],3.07E+00
same,Total Elimination,[2]; [6],2.6E+01
same,Tumor (g/Al %),[2]; [6],1.27E+01 g/Al %
same,Ratio (g)/Al TU/kidneys,[2]; [7],2.58E−01
same,Ratio (g)/Al Tu/Liver,[2]; [7],4.06E−01
same,Ratio (g)/Al Tu/Lungs,[2]; [7],3.52E+00
same,Ratio (g)/Al Tu/blood,[2]; [7],2.00E+01
same,Total Elimination,[2]; [7],6.8E+01
same,Tumor (g/Al %),[2]; [7],3.69E+00 g/Al %
same,tumoral uptake compared with the ligand alone (AP045),[2]; APAG22-1: at two hours post-IV,far higher
same,tumor/liver ratio relative to the compound AP071,[2]; Indium-111,less favorable
O=C([O-])CN(CCN(CC(=O)[O-])CC(=O)O)CCN(CC(=O)[O-])CC(=O)O.[Gd+3] [Gd(III)-DTPA],relaxation rate r1,"[3]; 0.6 T, 20° C.",5400 M⁻¹ s⁻¹
Gadomer-17,r1,[3]; 1.5 T and 37° C.,15.2 mM⁻¹ s⁻¹
